Measurements published in patent US8536337B2, “Solid forms of methyl (7aS,2′S)-2-(2-chlorophenyl)-2-(2,4,5,6,7,7a-hexahydrothieno[3,2-c]-5-pyridin-2-one)acetate” (IPCA Laboratories Limited, priority 2012, dated 2013).
Structures can show the parent of a compound that is named as a salt. Where two headings read alike, the source gives them in different places.

Experiments:
[1] = tested on: ADP induced platelet aggregation; assay: Measurement of platelet aggregation with ADP, ex vivo whole blood impedance aggregometry after oral dosing; type: in vivo, rat; conditions: SD rats, blood 4 h after dosing, 10 μM ADP; for % aggregation: vehicle control = 100%
Procedure: Measurement of Platelet Aggregation with ADP
The activity on the aggregation of plates induced by ADP or collagen was determined ex-vivo.
The products as a suspension in 5% Gum Arabica (aq.) were administered by oral route to groups of six male rats of the SD strain, weighing 250-300 g. After 4 hours of the administration, 2 ml of blood is collected into the heparinized tubes by puncture of retro-orbital sinus. 0.5 ml of the anticoagulated blood is diluted with an equal volume of isotonic saline solution and incubated at 37° C. for 10 minutes. To the incubated whole blood, 10 μM ADP is added and the change in impedance (Ω), which reflects platelet aggregation, is recorded for 8 minutes with Chronolog Whole Blood Aggregometer (Model 592, Chrono-log Corp., USA). The percentage inhibition of platelet aggregation is calculated by the following formula considering the vehicle control reading as 100%:

[2] = tested on: recurrent ischemic events / major bleeding events; conditions: cited from earlier work
[3] = tested on: ADP induced platelet aggregation; conditions: cited from earlier work; for time until 50% inhibition of ADP induced platelet aggregation is reached: LTA, 5 μM ADP ex-vivo
rat = conditions: in rat; cited from earlier work
[4] = cited from earlier work
[5] = Stability of the isolated isomer against conversion into mixture of isomers (keto-enol tautomerism); type: physicochemical; conditions: normal conditions, even in solutions
Excerpt: The present invention is realized by way of preferential stereoselective crystallization of one of the isomer {(7aS,2′S)-isomer} from a mixture of isomers with or without dynamic conversion of counter stereo-isomer {(7aR,2′S)-isomer} through enol form. 2-oxo-clopidogrel can exists in three isomeric forms, namely structures of formula II, Formula VI and Formula VII. […] Once the double bond in the ring flips between the tetrahydropyridine nucleus and the thiophene ring, it destroys the chiral centre at 7a position, especially during its formation, resulting in mixture of isomers. Therefore, to date, there are no reports available to exclusively isolate one of the isomer selectively. […] The compounds of the present invention are substantially free of other isomers for example, compound of Formula VI, and Formula VII, apart from isomer of Formula IIB. Substantially free herein means the levels of these compounds individually or cumulatively are less than 10%, preferably less than, 5%, more preferably less than 3%, still more preferably, less than 1.0%.

[6] = tested on: FeCl3 induced arterial thrombus formation (common carotid artery); assay: FeCl3 induced Arterial Thrombosis Model; type: in vivo, rat; conditions: SD rats, 30% FeCl3 1 hour post dosing
Procedure: 2. Anti-Thrombotic Activity
The antithrombotic activity has also been studied in FeCl3 induced Arterial Thrombosis Model according to standard procedures reported by William A. Schumacher et al., 2007 (Journal of Pharmacology and Experimental Therapeutics, 322 (I): 369-377) and Takao Tanaka et al. 2000 (European Journal of Pharmacology, 401: 413-418).
The products were dissolved in DMSO (1 mg/ml) and diluted in PEG/Water (Ratio: DMSO:PEG:Water=5:50:45), and were administered by the per oral mute to groups of 8 male rats of the SD strain, weighing 250-300 g after overnight fast. 1 hour post dosing, rats were anesthetized with Ketamine (100 mg/kg; i.p.), Xylazine (10 mg/kg; i.p) and placed on a heating pad. After aseptic preparation of the tracheal and scapular region of the rats, a midline incision of the tracheal area was made and a blunt dissection was performed to expose the common carotid artery. Approximately 2 cm of the common carotid artery was freed from the connective tissues, jugular veins, and vagus nerve and a ˜3 mm filter paper, briefly soaked in 30% FeCl3 solution, was placed around the artery for 10 min. The artery was isolated after 15 mins of the removal of filter paper and the rat was euthanized. Thrombus developed was scraped out from the extracted artery and kept for drying for 24 hours. The wet and dry weight of thrombus was recorded and expressed as mg weight of thrombus per kg body weight. % inhibition of the thrombus formation is calculated using the formula: […]

[7] = 2.2 mg/kg p.o. (1.98 mg/kg base)
[8] = combined with Aspirin therapy in patients with ACS
[9] = 1.3 mg/kg p.o. (1.17 mg/kg base)
[10] = patients at high risk of vascular events

CC(=O)Oc1cc2c(s1)CCN(C(C(=O)C1CC1)c1ccccc1F)C2 (stereo not drawn) [Prasugrel hydrochloride]
% aggregation ([1]; 2.2 mg/kg p.o. (2 mg/kg base)): 18.93%
inhibition at 2.2 mg/kg ([1]; Rattus norvegicus, Platelet, po, 2.2 mg/kg p.o. (2 mg/kg base)): 81.1%

COC(=O)[C@H](c1ccccc1Cl)N1CCC2SC(=O)C=C2C1.Cl (stereo partly drawn) [(2'S)-2-oxoclopidogrel hydrochloride]
% inhibition [1, 7]: 48.04%
% aggregation [1, 7]: 51.96%

COC(=O)[C@H](c1ccccc1Cl)N1CCc2sccc2C1 [clopidogrel, (+)-(S)-methyl2-(2-chlorophenyl)-2-(6,7-dihydrothieno[3,2-c]pyridin-5(4H)-yl)acetate]
ARR, recurrent ischemic events [2, 8]: about 2.1%
further reduction of the risk of recurrent ischemic events [2, 8]: 20%
inhibition of ADP induced platelet aggregation ([3]; 900 mg, at 5 μM ADP): 60%
inhibition of platelet aggregation ([3]; 900 mg, induced by 20 μM of ADP (ex vivo)): less than 50%
time until 50% inhibition of ADP induced platelet aggregation is reached ([3]; dose 600 mg): 2 h
time until 50% inhibition of ADP induced platelet aggregation is reached ([3]; loading dose of 300 mg): 4 to 6 h
lethal dose (rat): about 5000 mg per kg
share converted to clopidogrel acid in vivo [4]: 90%

COC(=O)C(c1ccccc1Cl)N1CCC2SC(=O)C=C2C1 [(7aS,2′S)-2-oxoclopidogrel, Methyl (7aS,2′S)-2-(2-chlorophenyl)-2-(2,4,5,6,7,7a-hexahydrothieno[3,2-c]-5-pyridin-2-one)acetate]
stability against conversion into mixture of isomers [5]: stable and resistant to conversion into mixture

COC(=O)C(c1ccccc1Cl)N1CCC2SC(=O)C=C2C1 [(7aS,2'S)-2-oxoclopidogrel bisulphate, Methyl (7aS,2′S)-2-(2-chlorophenyl)-2-(2,4,5,6,7,7a-hexahydrothieno[3,2-c]-5-pyridin-2-one)acetate hydrogen sulfate]
% aggregation ([1]; 2.5 mg/kg p.o. (1.9 mg/kg base)): 14.57%
% aggregation ([1]; 3.5 mg/kg p.o. (2.7 mg/kg base)): 9.14%
inhibition at 2.5 mg/kg ([1]; Rattus norvegicus, Platelet, po, 2.5 mg/kg p.o. (1.9 mg/kg base)): 85.4%
inhibition at 3.5 mg/kg ([1]; Rattus norvegicus, Platelet, po, 3.5 mg/kg p.o. (2.7 mg/kg base)): 90.9%
% Inhibition of Thrombus Formation (Mean ± SEM) [6, 9]: 76 ± 3.3%
Dry weight of Thrombus (mg/kg) (Mean ± SEM) [6, 9]: 0.98 ± 0.1 mg/kg

CC(=O)Oc1ccccc1C(=O)O [Aspirin]
Absolute risk increase (ARI), major bleeding events [2, 10]: about 0.5%
absolute risk reduction (ARR), recurrent ischemic events [2, 10]: about 2%
increase in the odds of major bleeding events [2, 10]: about 60%
reduction of the risk of recurrent ischemic events [2, 10]: 22%

COC(=O)[C@H](c1ccccc1Cl)N1CCc2sccc2C1 [Clopidogrel bisulphate]
% aggregation ([1]; 25 mg/kg p.o. (19.15 mg/kg base)): 22.85%
inhibition at 25 mg/kg ([1]; Rattus norvegicus, Platelet, po, 25 mg/kg p.o. (19.15 mg/kg base)): 77.2%
% Inhibition of Thrombus Formation (Mean ± SEM) ([6]; 4 mg/kg p.o. (3.06 mg/kg base)): 73 ± 5.3%
Dry weight of Thrombus (mg/kg) (Mean ± SEM) ([6]; 4 mg/kg p.o. (3.06 mg/kg base)): 1.10 ± 0.2 mg/kg
